From US12415786B2, “Substituted 2-heteroarylaminobenzenes and the salts thereof and their use as herbicidal agents” (Bayer Aktiengesellschaft, priority 2019, dated 2025)

Columns and labels:
Format in all cases: in vivo
Stellaria media [1] = test: Herbicidal post-emergence action (greenhouse pots), STEME; conditions: 1280 g/ha, visual rating about 3 weeks after treatment vs untreated controls
Outline: (§1)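 Activity is a visual percentage score (0% = like untreated controls, 100% = plants died) taken about 3 weeks after treatment. Plants grown in sandy loam under greenhouse conditions received 1280 g/ha onto green parts at the one-leaf stage, formulated as WP or EC with 0.5% additive.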

Poa annua [2] = test: Herbicidal early post-emergence action (96-well microtiter plates), POAAN; conditions: 1900 g/ha, scored 9 to 12 days after treatment, 100% = plants have died, 0% = like untreated control plants
Outline: (§2)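 Weed seeds grown in quartz sand in 96-well microtiter plates in a climate chamber and treated at the cotyledon stage, 5 to 7 days after sowing, with EC formulations at 2200 L/ha water and a rate equivalent to 1900 g/ha. Visual scoring after 9 to 12 days against untreated controls (0% = control, 100% = dead).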

Abutilon theophrasti [3] = test: Herbicidal post-emergence action (greenhouse pots), ABUTH; conditions: 1280 g/ha, visual rating about 3 weeks after treatment vs untreated controls
Outline: as §1

Echinochloa crus-galli [4] = test: Herbicidal pre-emergence action (greenhouse pots), ECHCG; conditions: 1280 g/ha, visual scoring after about 3 weeks vs untreated controls
Source text: (§3) In the examples and tables below, the following abbreviations are used: • Undesired Plants/Weeds: • ABUTH: Abutilon theophrasti • AGSTE: Agrostis tenuis • AMARE Amaranthus retroflexus • ECHCG: Echinochloa crus-galli • LOLRI: Lolium rigidum • MATIN: Matricaria inodora • POAAN: Poa annua • SETVI: Setaria viridis • STEME: Stellaria media A. Herbicidal Early Post-Emergence Action Seeds of mono- and dicotyledonous weed plants were placed in plastic pots in sandy loam soil (doubly sown with one species each of mono- or dicotyledonous weed plants per pot) and covered with soil. The compounds of the invention, formulated in the form of wettable powders (WP) or as emulsion concentrates (EC), were then applied onto the surface of the covering soil as aqueous suspension or emulsion with addition of 0.5% additive at a water application rate of 600 liters per hectare (converted). After the treatment, the pots were placed in a greenhouse and kept under good growth conditions for the test plants. After about 3 weeks, the effect of the preparations was scored visually in comparison with untreated controls as percentages. For example, 100% activity=the plants have died, 0% activity=like untreated control plants. Tables C1-C8 below show the effects of selected compounds of the general formula (I) according to Table 1 above on various harmful plants and an application rate corresponding to 1280 g/ha, which were obtained by the experimental procedure mentioned above.

Poa annua [5] = test: Herbicidal pre-emergence action (greenhouse pots), POAAN; conditions: 1280 g/ha, visual scoring after about 3 weeks vs untreated controls
Outline: (§4)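 Weed seeds sown in sandy loam in pots, covered, then soil surface sprayed with WP or EC formulations plus 0.5% additive at 600 L/ha water (converted), 1280 g/ha. Kept in greenhouse ~3 weeks; injury scored visually as % versus untreated controls (100% = dead).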

Echinochloa crus-galli [6] = test: Herbicidal post-emergence action (greenhouse pots), ECHCG; conditions: 1280 g/ha, rated after about 3 weeks, 100% = plants have died, 0% = like untreated control plants
Source text: (§5) In the examples and tables below, the following abbreviations are used: • Undesired Plants/Weeds: • ABUTH: Abutilon theophrasti • AGSTE: Agrostis tenuis • AMARE Amaranthus retroflexus • ECHCG: Echinochloa crus-galli • LOLRI: Lolium rigidum • MATIN: Matricaria inodora • POAAN: Poa annua • SETVI: Setaria viridis • STEME: Stellaria media A. Herbicidal Early Post-Emergence Action Seeds of mono- and dicotyledonous weed plants were placed in plastic pots in sandy loam soil (doubly sown with in each case one species of mono- or dicotyledonous weed plants per pot), covered with soil and cultivated in a greenhouse under controlled growth conditions. 2 to 3 weeks after sowing, the test plants were treated at the one-leaf stage. The compounds of the invention, formulated in the form of wettable powders (WP) or as emulsion concentrates (EC), were applied onto the green parts of the plants as aqueous suspension or emulsion with addition of 0.5% additive at a water application rate of 600 liters per hectare (converted). After the test plants had been kept in the greenhouse under optimum growth conditions for about 3 weeks, the activity of the preparations was rated visually in comparison to untreated controls. For example, 100% activity=the plants have died, 0% activity=like untreated control plants. Tables B1-B8 below show the effects of selected compounds of the general formula (I) according to Table 1 above on various harmful plants and an application rate corresponding to 1280 g/ha, which were obtained by the experimental procedure mentioned above.

Setaria viridis [7] = test: Herbicidal pre-emergence action (greenhouse pots), SETVI; conditions: 1280 g/ha, visual scoring after about 3 weeks vs untreated controls
Outline: as §4

Agrostis tenuis = test: Herbicidal early post-emergence action (96-well microtiter plates), AGSTE; conditions: 1900 g/ha, scored 9 to 12 days after treatment, 100% = plants have died, 0% = like untreated control plants
Outline: as §2

Setaria viridis [8] = test: Herbicidal post-emergence action (greenhouse pots), SETVI; conditions: 1280 g/ha, rated after about 3 weeks, 100% = plants have died, 0% = like untreated control plants
Source text: as §5

Lolium rigidum = test: Herbicidal pre-emergence action (greenhouse pots), LOLRI; conditions: 1280 g/ha, visual scoring after about 3 weeks vs untreated controls
Source text: as §3

Matricaria inodora = test: Herbicidal pre-emergence action (greenhouse pots), MATIN; conditions: 1280 g/ha, visual scoring after about 3 weeks vs untreated controls
Outline: as §4

Amaranthus retroflexus [9] = test: Herbicidal post-emergence action (greenhouse pots), AMARE; conditions: 1280 g/ha, visual rating about 3 weeks after treatment vs untreated controls
Outline: as §1

Amaranthus retroflexus [10] = test: Herbicidal pre-emergence action (greenhouse pots), AMARE; conditions: 1280 g/ha, visual scoring after about 3 weeks vs untreated controls
Outline: as §4

Stellaria media [11] = test: Herbicidal pre-emergence action (greenhouse pots), STEME; conditions: 1280 g/ha, visual scoring after about 3 weeks vs untreated controls
Outline: as §4

Poa annua [12] = test: Herbicidal post-emergence action (greenhouse pots), POAAN; conditions: 1280 g/ha, visual rating about 3 weeks after treatment vs untreated controls
Source text: as §5

Abutilon theophrasti [13] = test: Herbicidal pre-emergence action (greenhouse pots), ABUTH; conditions: 1280 g/ha, visual scoring after about 3 weeks vs untreated controls
Source text: as §3

Row | SMILES | herbicidal activity STEME (Stellaria media [1]) [%] | POAAN (herbicidal activity, scored visually in comparison to untreated controls) (Poa annua [2]) [%] | herbicidal activity ABUTH (Abutilon theophrasti [3]) [%] | herbicidal activity ECHCG (Echinochloa crus-galli [4]) [%] | herbicidal activity POAAN (Poa annua [5]) [%] | ECHCG (herbicidal activity, rated visually in comparison to untreated controls) (Echinochloa crus-galli [6]) [%] | herbicidal activity SETVI (Setaria viridis [7]) [%] | AGSTE (herbicidal activity, scored visually in comparison to untreated controls) (Agrostis tenuis) [%] | SETVI (herbicidal activity, rated visually in comparison to untreated controls) (Setaria viridis [8]) [%] | herbicidal activity LOLRI (Lolium rigidum) [%] | herbicidal activity MATIN (Matricaria inodora) [%] | herbicidal activity AMARE (Amaranthus retroflexus [9]) [%] | herbicidal activity AMARE (Amaranthus retroflexus [10]) [%] | herbicidal activity STEME (Stellaria media [11]) [%] | herbicidal activity POAAN (Poa annua [12]) [%] | herbicidal activity ABUTH (Abutilon theophrasti [13]) [%]
1 | N#Cc1cccc(Nc2ncccn2)c1Oc1ccc(F)c(F)c1 [Example 1-253] | 100 | 100 | 100 | 100 | 100 | 100 | 100 | 100 | 90 | 100 | 100 | 100 | 100 | 100 |  | 
2 | N#Cc1cccc(Nc2ncc(F)cn2)c1Oc1cccc(C(F)(F)F)c1 [Example 1-278] | 100 | 100 | 90 |  | 100 | 90 | 100 | 100 |  | 100 | 100 | 100 | 100 | 100 |  | 
3 | N#Cc1cccc(Nc2ncc(F)cn2)c1Oc1ccc(C(F)(F)F)cc1 [Example 1-279] | 100 | 100 |  |  | 100 |  | 100 | 80 |  | 90 | 90 | 100 | 100 | 100 | 100 | 
4 | N#Cc1cccc(Nc2ncc(Cl)cn2)c1Oc1ccc(F)c(F)c1 [Example 1-291] | 100 | 100 | 100 | 90 | 100 | 100 | 100 | 100 | 100 | 100 | 100 | 100 | 100 | 100 | 100 | 
5 | N#Cc1cccc(Nc2ncc(Cl)cn2)c1Oc1ccc(Cl)cc1F [Example 1-294] | 100 | 100 |  | 90 | 100 |  | 100 | 80 |  |  |  | 100 | 100 | 100 | 100 | 90
6 | N#Cc1ccc(Oc2c(C#N)cccc2Nc2ncc(Cl)cn2)cc1 [Example 1-299] | 100 | 100 |  |  | 100 |  | 100 | 80 | 90 | 90 |  | 100 | 100 | 100 |  | 
7 | Cc1cnc(Nc2cccc(C#N)c2Oc2ccc(F)cc2)nc1 [Example 1-308] | 100 | 100 | 100 | 90 | 100 | 100 | 100 | 100 | 100 |  | 100 | 100 | 100 | 100 | 100 | 100
8 | N#Cc1cccc(Nc2ncc(Cl)cn2)c1Oc1ccc(Cl)nc1 [Example 3-56] | 100 | 100 | 100 | 100 | 100 | 100 | 100 | 100 | 100 |  | 100 | 100 | 100 | 100 | 100 | 100
